Reference: ChEMBL document CHEMBL3098008, “Lactam based 7-amino suberoylamide hydroxamic acids as potent HDAC inhibitors” (Bioorg Med Chem Lett, 2014)

How the values were obtained:
[1] = Cytotoxicity against human H460 cells; type: functional, cell-based; conditions: NCI-H460
[2] = molecular target: T1, Histone deacetylase 11 (Homo sapiens, UniProt Q96DB2); experiment: Inhibition of human HDAC11 using RHKK(Ac) as substrate by fluorimetric analysis
T1 sequence (Q96DB2 whole entry): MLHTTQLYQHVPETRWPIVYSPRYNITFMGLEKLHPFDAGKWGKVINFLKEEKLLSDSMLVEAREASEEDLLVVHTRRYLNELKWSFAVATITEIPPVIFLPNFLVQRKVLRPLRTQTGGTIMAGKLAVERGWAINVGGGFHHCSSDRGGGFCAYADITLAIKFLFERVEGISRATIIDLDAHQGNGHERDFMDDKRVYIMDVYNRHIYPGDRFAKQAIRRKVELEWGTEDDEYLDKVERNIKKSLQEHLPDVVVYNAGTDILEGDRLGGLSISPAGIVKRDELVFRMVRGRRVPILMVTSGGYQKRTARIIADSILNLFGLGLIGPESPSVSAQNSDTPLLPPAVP

[3] = molecular target: T2, Polyamine deacetylase HDAC10 (Homo sapiens, UniProt Q969S8); experiment: Inhibition of human HDAC10 using RHKK(Ac) as substrate by fluorimetric analysis
T2 sequence (Q969S8 whole entry): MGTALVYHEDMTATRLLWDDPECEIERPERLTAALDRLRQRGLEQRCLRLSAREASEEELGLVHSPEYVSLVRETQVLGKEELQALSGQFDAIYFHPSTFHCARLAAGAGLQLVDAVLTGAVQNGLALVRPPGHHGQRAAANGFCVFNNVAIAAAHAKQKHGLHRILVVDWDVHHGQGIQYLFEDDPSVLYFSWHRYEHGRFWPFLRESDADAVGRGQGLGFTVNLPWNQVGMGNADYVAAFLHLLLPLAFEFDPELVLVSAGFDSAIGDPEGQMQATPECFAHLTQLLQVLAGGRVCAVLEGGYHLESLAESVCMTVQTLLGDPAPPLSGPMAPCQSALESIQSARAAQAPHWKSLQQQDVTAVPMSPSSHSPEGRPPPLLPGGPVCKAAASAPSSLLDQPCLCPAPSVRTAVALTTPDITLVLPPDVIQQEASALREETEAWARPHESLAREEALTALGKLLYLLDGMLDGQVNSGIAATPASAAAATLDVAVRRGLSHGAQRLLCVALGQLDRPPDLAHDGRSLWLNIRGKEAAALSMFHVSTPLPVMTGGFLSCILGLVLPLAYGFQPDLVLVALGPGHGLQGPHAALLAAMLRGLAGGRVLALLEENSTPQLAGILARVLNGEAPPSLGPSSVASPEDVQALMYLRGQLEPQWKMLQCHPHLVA

[4] = molecular target: T3, Protein deacetylase HDAC6 (Homo sapiens, UniProt Q9UBN7); experiment: Inhibition of human HDAC6 using RHKK(Ac) as substrate by fluorimetric analysis
T3 sequence (Q9UBN7 whole entry): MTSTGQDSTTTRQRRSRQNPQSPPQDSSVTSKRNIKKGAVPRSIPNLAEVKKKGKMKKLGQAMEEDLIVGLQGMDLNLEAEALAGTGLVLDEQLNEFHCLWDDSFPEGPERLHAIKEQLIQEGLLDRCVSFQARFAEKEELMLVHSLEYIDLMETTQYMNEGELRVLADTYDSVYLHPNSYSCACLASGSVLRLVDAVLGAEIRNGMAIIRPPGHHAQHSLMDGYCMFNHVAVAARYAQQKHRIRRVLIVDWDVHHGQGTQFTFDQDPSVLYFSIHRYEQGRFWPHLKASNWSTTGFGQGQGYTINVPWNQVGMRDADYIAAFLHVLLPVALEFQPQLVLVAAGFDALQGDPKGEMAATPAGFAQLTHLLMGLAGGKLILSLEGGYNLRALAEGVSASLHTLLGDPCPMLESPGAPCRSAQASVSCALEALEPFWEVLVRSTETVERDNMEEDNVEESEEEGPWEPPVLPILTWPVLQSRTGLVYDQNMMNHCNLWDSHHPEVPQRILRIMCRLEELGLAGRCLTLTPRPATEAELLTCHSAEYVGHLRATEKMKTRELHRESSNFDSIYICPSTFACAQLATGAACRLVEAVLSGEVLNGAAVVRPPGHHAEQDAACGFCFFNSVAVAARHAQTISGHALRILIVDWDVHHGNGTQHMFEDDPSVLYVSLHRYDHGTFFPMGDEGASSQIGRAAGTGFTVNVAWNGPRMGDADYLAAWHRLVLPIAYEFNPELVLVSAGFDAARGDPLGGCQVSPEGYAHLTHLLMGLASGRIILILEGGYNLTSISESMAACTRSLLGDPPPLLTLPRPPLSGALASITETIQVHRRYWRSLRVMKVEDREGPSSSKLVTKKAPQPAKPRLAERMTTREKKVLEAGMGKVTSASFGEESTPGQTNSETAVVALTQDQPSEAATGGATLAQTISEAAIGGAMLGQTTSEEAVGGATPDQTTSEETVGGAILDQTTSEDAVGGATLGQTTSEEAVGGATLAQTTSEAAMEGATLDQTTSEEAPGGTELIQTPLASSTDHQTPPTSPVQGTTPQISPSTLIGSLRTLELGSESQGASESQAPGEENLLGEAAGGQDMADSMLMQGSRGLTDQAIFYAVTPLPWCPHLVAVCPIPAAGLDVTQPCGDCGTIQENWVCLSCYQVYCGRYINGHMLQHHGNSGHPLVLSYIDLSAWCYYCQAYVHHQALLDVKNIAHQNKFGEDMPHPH

[5] = molecular target: Histone deacetylase 3/Nuclear receptor corepressor 2 (HDAC3/NCoR2) (Homo sapiens, UniProt O15379); experiment: Inhibition of human HDAC3/NCOR2 using RHKK(Ac) as substrate by fluorimetric analysis; type: protein-complex assay
[6] = molecular target: Histone deacetylase 1 (Homo sapiens, UniProt Q13547); experiment: Inhibition of human HDAC1 using RHKK(Ac) as substrate by fluorimetric analysis
[7] = molecular target: Histone deacetylase 2 (Homo sapiens, UniProt Q92769); experiment: Inhibition of human HDAC2 using RHKK(Ac) as substrate by fluorimetric analysis
Chain of Histone deacetylase 2 (Q92769 whole entry): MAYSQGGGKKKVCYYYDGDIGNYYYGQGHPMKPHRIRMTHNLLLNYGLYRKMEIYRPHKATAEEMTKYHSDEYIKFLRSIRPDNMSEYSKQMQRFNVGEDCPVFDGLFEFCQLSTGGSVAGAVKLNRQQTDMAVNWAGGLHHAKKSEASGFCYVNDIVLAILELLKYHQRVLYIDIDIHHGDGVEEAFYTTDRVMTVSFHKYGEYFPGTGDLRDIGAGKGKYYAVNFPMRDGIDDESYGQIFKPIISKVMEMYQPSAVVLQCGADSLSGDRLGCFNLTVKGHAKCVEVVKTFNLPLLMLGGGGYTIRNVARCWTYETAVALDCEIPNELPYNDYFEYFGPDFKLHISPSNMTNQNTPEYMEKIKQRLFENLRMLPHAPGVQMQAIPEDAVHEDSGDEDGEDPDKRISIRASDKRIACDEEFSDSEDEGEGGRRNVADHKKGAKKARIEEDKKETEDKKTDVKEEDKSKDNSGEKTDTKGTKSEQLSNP

Chain of Histone deacetylase 3/Nuclear receptor corepressor 2 (HDAC3/NCoR2) (O15379 whole entry): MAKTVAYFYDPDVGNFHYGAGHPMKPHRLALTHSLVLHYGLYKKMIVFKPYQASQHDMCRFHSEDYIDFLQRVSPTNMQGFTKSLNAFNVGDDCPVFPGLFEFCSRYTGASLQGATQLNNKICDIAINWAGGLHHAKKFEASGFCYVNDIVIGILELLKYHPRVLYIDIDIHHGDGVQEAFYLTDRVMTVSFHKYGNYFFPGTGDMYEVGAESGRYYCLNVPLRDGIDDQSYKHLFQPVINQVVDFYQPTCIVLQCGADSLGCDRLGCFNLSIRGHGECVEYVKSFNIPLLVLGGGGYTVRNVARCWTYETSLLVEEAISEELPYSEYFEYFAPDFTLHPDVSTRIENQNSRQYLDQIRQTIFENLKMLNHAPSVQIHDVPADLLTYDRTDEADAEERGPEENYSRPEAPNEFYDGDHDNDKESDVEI
Chain of Histone deacetylase 3/Nuclear receptor corepressor 2 (HDAC3/NCoR2) (Q9Y618 whole entry, further chain): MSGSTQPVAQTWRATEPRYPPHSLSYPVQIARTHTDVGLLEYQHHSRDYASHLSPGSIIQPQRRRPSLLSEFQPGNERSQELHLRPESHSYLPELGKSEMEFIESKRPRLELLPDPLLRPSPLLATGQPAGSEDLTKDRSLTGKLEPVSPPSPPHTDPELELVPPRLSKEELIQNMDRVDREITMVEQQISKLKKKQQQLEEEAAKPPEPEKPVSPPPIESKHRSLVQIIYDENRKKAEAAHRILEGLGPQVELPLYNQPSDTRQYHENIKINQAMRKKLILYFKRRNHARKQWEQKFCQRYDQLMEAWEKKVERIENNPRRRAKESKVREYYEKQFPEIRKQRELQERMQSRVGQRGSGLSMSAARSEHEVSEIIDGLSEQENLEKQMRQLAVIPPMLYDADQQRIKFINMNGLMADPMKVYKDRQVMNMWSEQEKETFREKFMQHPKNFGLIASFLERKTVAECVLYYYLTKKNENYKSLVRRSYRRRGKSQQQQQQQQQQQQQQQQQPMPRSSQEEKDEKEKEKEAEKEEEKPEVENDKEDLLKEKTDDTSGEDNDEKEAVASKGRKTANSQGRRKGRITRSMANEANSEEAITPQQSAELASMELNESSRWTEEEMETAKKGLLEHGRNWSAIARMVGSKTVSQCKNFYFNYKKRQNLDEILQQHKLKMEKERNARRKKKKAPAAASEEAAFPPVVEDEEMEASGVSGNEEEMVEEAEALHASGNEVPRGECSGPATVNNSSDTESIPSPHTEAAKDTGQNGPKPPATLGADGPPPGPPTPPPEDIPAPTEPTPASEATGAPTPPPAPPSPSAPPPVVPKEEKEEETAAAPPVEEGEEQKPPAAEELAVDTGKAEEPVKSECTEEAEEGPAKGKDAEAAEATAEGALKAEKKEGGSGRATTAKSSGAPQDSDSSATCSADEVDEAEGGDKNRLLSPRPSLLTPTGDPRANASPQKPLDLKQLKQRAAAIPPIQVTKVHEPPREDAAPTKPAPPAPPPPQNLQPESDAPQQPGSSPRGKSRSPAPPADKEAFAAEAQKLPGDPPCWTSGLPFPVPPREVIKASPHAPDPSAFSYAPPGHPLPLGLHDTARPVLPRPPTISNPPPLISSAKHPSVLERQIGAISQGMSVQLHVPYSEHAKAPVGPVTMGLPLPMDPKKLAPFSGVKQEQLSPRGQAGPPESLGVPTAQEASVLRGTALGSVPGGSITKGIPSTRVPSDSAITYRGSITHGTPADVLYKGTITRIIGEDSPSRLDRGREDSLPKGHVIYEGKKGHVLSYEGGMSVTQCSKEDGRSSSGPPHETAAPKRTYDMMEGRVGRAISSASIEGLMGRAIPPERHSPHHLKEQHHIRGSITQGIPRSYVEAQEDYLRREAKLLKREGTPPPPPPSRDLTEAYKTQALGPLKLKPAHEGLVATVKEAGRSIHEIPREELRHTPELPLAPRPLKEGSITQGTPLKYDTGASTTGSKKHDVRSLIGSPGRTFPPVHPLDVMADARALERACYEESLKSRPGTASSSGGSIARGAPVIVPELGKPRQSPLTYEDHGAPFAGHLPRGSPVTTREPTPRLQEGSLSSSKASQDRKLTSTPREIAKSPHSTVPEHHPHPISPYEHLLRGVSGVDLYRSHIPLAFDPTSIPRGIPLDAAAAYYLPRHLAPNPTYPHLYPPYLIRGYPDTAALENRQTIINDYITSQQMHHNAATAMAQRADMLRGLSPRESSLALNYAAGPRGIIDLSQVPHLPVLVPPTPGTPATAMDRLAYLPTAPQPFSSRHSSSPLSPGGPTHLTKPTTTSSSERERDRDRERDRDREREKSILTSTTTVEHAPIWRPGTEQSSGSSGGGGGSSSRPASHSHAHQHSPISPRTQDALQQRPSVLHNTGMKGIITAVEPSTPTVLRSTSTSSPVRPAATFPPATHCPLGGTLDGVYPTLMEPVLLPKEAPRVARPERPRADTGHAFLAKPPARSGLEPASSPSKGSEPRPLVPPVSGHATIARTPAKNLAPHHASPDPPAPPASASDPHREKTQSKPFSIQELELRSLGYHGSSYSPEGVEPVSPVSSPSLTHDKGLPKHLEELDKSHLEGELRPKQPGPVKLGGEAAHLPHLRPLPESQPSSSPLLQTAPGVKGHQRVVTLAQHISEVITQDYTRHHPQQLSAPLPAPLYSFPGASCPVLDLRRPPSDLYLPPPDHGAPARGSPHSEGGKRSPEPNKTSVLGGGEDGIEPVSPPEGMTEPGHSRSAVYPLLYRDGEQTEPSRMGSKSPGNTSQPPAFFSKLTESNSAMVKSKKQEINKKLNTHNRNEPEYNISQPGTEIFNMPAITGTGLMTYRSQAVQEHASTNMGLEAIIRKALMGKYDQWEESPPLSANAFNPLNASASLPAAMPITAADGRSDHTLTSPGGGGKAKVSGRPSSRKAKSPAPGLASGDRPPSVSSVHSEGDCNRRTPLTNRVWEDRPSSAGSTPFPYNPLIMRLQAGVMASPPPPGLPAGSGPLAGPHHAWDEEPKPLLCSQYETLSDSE
Chain of Histone deacetylase 1 (Q13547 whole entry): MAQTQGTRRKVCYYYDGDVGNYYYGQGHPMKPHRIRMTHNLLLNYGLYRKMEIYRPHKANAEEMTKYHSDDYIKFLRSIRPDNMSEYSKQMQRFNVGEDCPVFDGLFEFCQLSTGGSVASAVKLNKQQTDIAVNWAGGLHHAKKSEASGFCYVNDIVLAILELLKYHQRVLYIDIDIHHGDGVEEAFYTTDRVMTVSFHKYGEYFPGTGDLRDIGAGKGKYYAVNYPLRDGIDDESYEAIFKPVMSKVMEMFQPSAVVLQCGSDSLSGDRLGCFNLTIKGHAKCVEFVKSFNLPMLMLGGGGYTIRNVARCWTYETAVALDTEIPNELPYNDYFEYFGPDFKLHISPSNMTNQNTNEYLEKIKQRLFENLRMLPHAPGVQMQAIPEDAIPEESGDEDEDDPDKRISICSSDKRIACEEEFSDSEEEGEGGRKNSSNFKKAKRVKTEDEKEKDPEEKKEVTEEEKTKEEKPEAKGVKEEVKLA

SMILES | IC50 [1] | IC50 [2] | IC50 [3] | IC50 [4] | IC50 [5] | IC50 [6] | IC50 [7]
Cc1cccc(NC(=O)CCCCCCC(=O)NO)c1 | 800 nM | 1600 nM | 503 nM | 22 nM | 216 nM | 197 nM | –
O=C(CCCCC[C@H](NC(=O)[C@@H]1CC(=O)N1)C(=O)Nc1ccccc1)NO | 2200 nM | 135 nM | 113 nM | 3 nM | 62 nM | 34 nM | 89 nM
O=C(CCCCC[C@H](NC(=O)[C@H]1CCC(=O)N1)C(=O)NCCc1ccccc1)NO | 4900 nM | 47.8 nM | 210 nM | 6 nM | 144 nM | 77 nM | 180 nM
O=C(CCCCC[C@H](NC(=O)C1CCNC1=O)C(=O)Nc1ccccc1)NO (stereo not given in full) | 4000 nM | 150 nM | 147 nM | 4 nM | 74 nM | 72 nM | 238 nM
O=C(CCCCC[C@H](NC(=O)[C@@H]1CCCC(=O)N1)C(=O)NC1CCCC1)NO | 2400 nM | 1440 nM | 6830 nM | 31 nM | 5660 nM | 1450 nM | 5040 nM
O=C(CCCCCCC(=O)NC1CCCC1)NO | 21000 nM | 2630 nM | 4890 nM | 75 nM | 3330 nM | 1790 nM | 4390 nM
O=C(CCCCC[C@H](NC(=O)C1CCCNC1=O)C(=O)Nc1ccccc1)NO (stereo not given in full) | 5100 nM | 255 nM | 244 nM | 19 nM | 116 nM | 131 nM | 689 nM
O=C(CCCCC[C@H](NC(=O)[C@@H]1CCCC(=O)N1)C(=O)Nc1ccccc1)NO | 2500 nM | 47 nM | 51 nM | 5 nM | 20 nM | 25 nM | 89 nM
O=C(CCCCCCC(=O)NCCc1ccccc1)NO | 18200 nM | 1130 nM | 1350 nM | 25 nM | 3610 nM | 1140 nM | 5160 nM
Cc1cccc(NC(=O)[C@H](CCCCCC(=O)NO)NC(=O)[C@H]2CCC(=O)N2)c1 | 500 nM | 15.5 nM | 30.3 nM | 3 nM | 11 nM | 7 nM | 27 nM
O=C(CCCCCCC(=O)Nc1cccc(C(F)(F)F)c1)NO | 2500 nM | 75.1 nM | 374 nM | 6 nM | 185 nM | 63 nM | 165 nM
O=C(CCCCC[C@H](NC(=O)[C@H]1CCC(=O)N1)C(=O)Nc1ccccc1)NO | 4000 nM | 75 nM | 93 nM | 8 nM | 67 nM | 43 nM | 142 nM
Cc1ccc(NC(=O)[C@H](CCCCCC(=O)NO)NC(=O)[C@H]2CCC(=O)N2)cc1 | 600 nM | 127 nM | 163 nM | 4 nM | 66 nM | 32 nM | 93 nM
O=C(CCCCC[C@H](NC(=O)[C@H]1CCC(=O)N1)C(=O)Nc1cccc(C(F)(F)F)c1)NO | 500 nM | 55.5 nM | 10.6 nM | 2 nM | 2 nM | 2 nM | 8 nM
O=C(CCCCC[C@H](NC(=O)[C@@H]1CCC(=O)N1)C(=O)Nc1ccccc1)NO | 5400 nM | 37 nM | 125 nM | 6 nM | 89 nM | 59 nM | 143 nM
O=C(CCCCC[C@H](NC(=O)C1C(=O)NCC1c1ccccc1)C(=O)Nc1ccccc1)NO (stereo not given in full) | 2400 nM | 70 nM | 88 nM | 4 nM | 14 nM | 33 nM | 110 nM
O=C(CCCCC[C@H](NC(=O)[C@@H]1CCCC(=O)N1)C(=O)NCCc1ccccc1)NO | 8200 nM | 262 nM | 227 nM | 8 nM | 539 nM | 102 nM | 956 nM
Cc1ccc(NC(=O)CCCCCCC(=O)NO)cc1 | 4100 nM | 78.6 nM | 649 nM | 12 nM | 452 nM | 200 nM | 589 nM
